From patent US12285407B2, “Bis-indolylmethane derivatives and uses thereof” (The University of The West Indies, priority 2018, dated 2025) come the findings set out here.

Converted amounts (≈) assume the structure as drawn. Like-named read-outs stand apart in the source and are kept apart here. Some results are limits rather than exact numbers.

One assay has as its system Bacillus cereus. In words: Adjuvant broth microdilution (antibiotic MIC with SP-BIM at 50 μg/mL). Conditions: antibiotic alone, Table 9. The class given is cell-based. In general terms: In broth dilution the organism is exposed to a series of concentrations in liquid medium.
The test system of assay [1] is Pseudomonas aeruginosa. Description: Rescue concentrations of SP-BIM that reactivate antibiotic. The assay is classed as cell-based. The note with it: P. aeruginosa; for MIC: Pseudomonas aeruginosa, agent alone, read-out: MIC (single agent).
Another assay deals with Klebsiella pneumoniae. Description: Adjuvant broth microdilution (antibiotic MIC with SP-BIM at 50 μg/mL). The class given is cell-based. The note with it: Klebsiella pneumonia; antibiotic alone, no SP-BIM.
The subject of assay [2] is Pseudomonas aeruginosa. Described as above. The note with it: antibiotic alone. The class given is cell-based.
In the next assay the test system is Enterobacter cloacae. Described as above. The assay is classed as cell-based. The note with it: antibiotic alone.
For the next assay, the system named is MRSA. Described as above. The note with it: antibiotic alone, Table 8 (series SP-BIMs 21-29). The class given is cell-based, Staphylococcus aureus.
In a further assay the test system is clinical strains of MRSA. Description: Kirby Bauer disc diffusion susceptibility profile. The class given is cell-based, Staphylococcus aureus. The note with it: for Zone of clearance: 35° C., 24 hours, average n=3; for Interpretive standard (resistant/susceptible): zones vs EUCAST breakpoints (Table 30). Background: In agar diffusion tests the substance spreads into inoculated agar from a disc or well.

The test system of the next assay is Enterococcus faecalis. Description: Adjuvant broth microdilution (antibiotic MIC with SP-BIM at 50 μg/mL). The class given is cell-based. The note with it: antibiotic alone.
The next assay relates to Escherichia coli O157:H7. The assay is classed as cell-based. Conditions: antibiotic alone, no SP-BIM.
In assay [3] the test system is panel of ATCC reference pathogen strains. In words: Broth microdilution MIC of SP-BIMs, panel summary in text. The class given is cell-based. The text has this: Reference microorganisms used in this study included: Bacillus cereus (American Type Culture Collection (ATCC) No. 14579), Streptococcus pyogenes (ATCC No. 19615), Staphylococcus aureus (ATCC No. 12600), Enterococcus faecium (ATCC No. 19434), Corynebacterium diphtheriae (ATCC No. 27010), Escherichia coli (ATCC No. 35218), Salmonella typhimurium (ATCC No. 14028), Pseudomonas aeruginosa (ATCC No. 27853), Klebsiella pneumoniae (ATCC No. 49472), and Candida albicans (ATCC No. 22972).
Prior to each experiment, cultures were streaked onto clean BHI agar plates and incubated at 35° C. for 24 hours. Colonies of the respective cultures were selected and inoculated in phosphate buffer saline (pH 7.5) to a 0.5 McFarland turbidity standard (equivalent to 10^8 CFU mL^−1). […]
To assess the antibiotic properties of the library of SP-BIMs, the broth microdilution assay was performed in 96-well microplates according to the Clinical and Laboratory Standards Institute 2014 Guidelines (CLSI 2014). […] The MIC was recorded as the well with the lowest concentration of test compound where no color change was observed.
The antimicrobial activity of the library of substituted [bis(indol-3yl)]methanes was assessed against a panel of ATCC reference pathogen strains of clinical relevance. […]

In a further assay the test system is Streptococcus pneumoniae. Description: Adjuvant broth microdilution (antibiotic MIC with SP-BIM at 50 μg/mL). The note with it: Streptococcus pneumoniae, Streptococcus pneumonia, SP-BIM at 50 μg mL^−1. The class given is cell-based.
Assay [4] deals with Candida albicans ATCC 22972. Description: Broth microdilution MIC of SP-BIMs. The class given is cell-based. Conditions: ATCC22972, SP-BIM alone, read-out: MIC Candida albicans ATCC 22972.
Assay [5] has as its system Salmonella typhimurium ATCC 14028. In words: Broth microdilution MIC of SP-BIMs. The class given is cell-based. Conditions: Salmonella enterica, read-out: MIC Salmonella tvpkimurium ATCC 14028. The essentials:
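S. typhimurium at ~10^6 CFU mL^−1 in cation-adjusted Mueller Hinton broth was exposed to twofold compound dilutions from 250 to 0.02 μg mL^−1 at 35° C. for 18 hours. Resazurin was then added, with 1 hour of shaking. MIC was the lowest concentration showing no blue-to-pink colour change.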

The test system of assay [6] is Bacillus cereus ATCC 14579. Description: Broth microdilution MIC of SP-BIMs. The class given is cell-based. The note with it: ATCC14579, SP-BIM alone, read-out: MIC Bacillus cereus ATCC 14579.
Assay [7] has as its system Klebsiella pneumoniae ATCC 49472. Description: Broth microdilution MIC of SP-BIMs. The class given is cell-based. Conditions: ATCC49472, SP-BIM alone, read-out: MIC Klebisella pneumoniae ATCC 49472.
The test system of assay [8] is Corynebacterium diphtheriae ATCC 27010. In words: Broth microdilution MIC of SP-BIMs. The assay is classed as cell-based. Conditions: ATCC27010, SP-BIM alone, read-out: MIC Corynebacterium diphtheriae ATCC 27010.
For assay [9], the system named is Escherichia coli ATCC 35218. Description: Broth microdilution MIC of SP-BIMs. The assay is classed as cell-based. The note with it: ATCC35218, SP-BIM alone, read-out: MIC Escherichia coli ATCC 35218.
The test system of assay [10] is Streptococcus pyogenes ATCC 19615. Description: Broth microdilution MIC of SP-BIMs. The note with it: ATCC19615, SP-BIM alone, read-out: MIC Streptococcus pyogenes ATCC 19615. The class given is cell-based.
Assay [11] relates to Enterococcus faecium ATCC 19434. Description: Broth microdilution MIC of SP-BIMs. The class given is cell-based. Conditions: ATCC19434, SP-BIM alone, read-out: MIC Enterococcus faecium ATCC 19434.
For assay [12], the system named is Pseudomonas aeruginosa ATCC 27853. Description: Broth microdilution MIC of SP-BIMs. The class given is cell-based. The note with it: ATCC27853, SP-BIM alone, read-out: MIC Pseudomonas aeruginosa ATCC 27853.
Assay [13] deals with Staphylococcus aureus ATCC 12600. Description: Broth microdilution MIC of SP-BIMs. The assay is classed as cell-based. Conditions: ATCC12600, SP-BIM alone, read-out: MIC Staphylococcus aureus ATCC 12600.
Setting [14] is: read-out: MIC of Kanamvcin with SP-BIM.
Where [15] appears, read: read-out: MIC of Vancomvcin with SP-BIM.

As a reminder, the MIC is the smallest concentration in the dilution series that meets the test's criterion for growth inhibition. As to `O=C(N[C@H](CO)[C@H](O)c1ccc([N+](=O)[O-])cc1)C(Cl)Cl` [Chloramphenicol, chloramphenicol], the “MIC of antibiotic, No Compound” value in the assay on Bacillus cereus is 4 µg/mL; in the assay with Klebsiella pneumoniae it was >250 µg/mL; with Pseudomonas aeruginosa [2], 250 µg/mL; in the assay with Enterobacter cloacae, 16 µg/mL; in the assay with MRSA, <0.5 µg/mL; in the assay on Enterococcus faecalis, 250 µg/mL. Moreover, in the assay with Escherichia coli O157:H7, the “MIC of antibiotic, No Compound” value came out at 8 µg/mL. In addition, the MIC in the assay on Pseudomonas aeruginosa [1] is 250 µg/mL (≈ 774 µM). Moreover, the Zone of clearance in the assay on clinical strains of MRSA (MRSA strain 1594) was determined as 18.5 mm; with clinical strains of MRSA (MRSA strain 1621), 24.5 mm; in the assay with clinical strains of MRSA (MRSA strain 5455), 22.0 mm; with clinical strains of MRSA (MRSA strain 5872), 20.5 mm; in the assay with clinical strains of MRSA (MRSA strain 7153) it was 18.0 mm; in the assay on clinical strains of MRSA (MRSA strain 7172), 19.5 mm. The Zone of clearance with clinical strains of MRSA (MRSA strain 7698) was determined as 16.5 mm; with clinical strains of MRSA (MRSA strain 10132), 21.5 mm. Moreover, the “Interpretive standard (resistant/susceptible)” value with clinical strains of MRSA (MRSA strain 1594), in the assay on clinical strains of MRSA (MRSA strain 1621), in the assay on clinical strains of MRSA (MRSA strain 5455), in the assay with clinical strains of MRSA (MRSA strain 5872), with clinical strains of MRSA (MRSA strain 7153) and in the assay on clinical strains of MRSA (MRSA strain 7172) was “S” each time. Also, the “Interpretive standard (resistant/susceptible)” value in the assay on clinical strains of MRSA (MRSA strain 7698) and with clinical strains of MRSA (MRSA strain 10132) was “S” each time.
For the compound `c1ccc(C(c2c[nH]c3ccccc23)c2c[nH]c3ccccc23)cc1` [SP-BIM 1, bis(indol-3-yl)-phenylmethane], in [3], the “antibacterial activity” value was “displayed antibacterial activity, and only against Gram-positive bacteria”. Besides, the MIC is 125 µg/mL with Streptococcus pneumoniae (setting [14]); 1 µg/mL with Streptococcus pneumoniae (setting [15]); 250 µg/mL in assay [4]; 250 µg/mL in assay [5]; 83 µg/mL in [6]; > 250 µg/mL in assay [7]. Also, the minimal inhibitory concentration (MIC) in assay [8] was 125 µg/mL; in assay [9], > 250 µg/mL; in assay [10], 83 µg/mL; in assay [11] it was 52 µg/mL; in assay [12], 250 µg/mL; in assay [13], > 250 µg/mL.
With `c1ccc2c(C(c3ncc[nH]3)c3c[nH]c4ccccc34)c[nH]c2c1` [SP-BIM 4, [bis(indol-3-yl)imidazol-2-yl]methane], in assay [3], the “antibacterial activity” value is “displayed antibacterial activity, and only against Gram-positive bacteria”. Also, the MIC was 125 µg/mL with Streptococcus pneumoniae (setting [14]); 1 µg/mL in the assay on Streptococcus pneumoniae (setting [15]); 250 µg/mL in assay [4]; 250 µg/mL in assay [5]; 125 µg/mL in assay [6]; > 250 µg/mL in assay [7]. In addition, the MIC was 166 µg/mL in [8]; > 250 µg/mL in [9]; 104 µg/mL in assay [10]; 104 µg/mL in assay [11]; 250 µg/mL in [12]; 166 µg/mL in assay [13].
As to `Oc1ccc2c(C(c3ccc(Br)cc3)c3c[nH]c4cc(O)ccc34)c[nH]c2c1` [SP-BIM 23, 3,3′-((4-bromophenyl)methylene)bis(1H-indol-6-ol)], in the assay with Pseudomonas aeruginosa [1], the “MIC of chloramphenicol in combination with 64 μg/mL SP-BIM 23” value stood at 4 µg/mL and the minimum inhibitory concentration (MIC) is > 250 µg/mL.
